Test results published in patent US20080206770A1, “SCREENING METHODS USED TO IDENTIFY COMPOUNDS THAT MODULATE SKIN STROMAL CELLS (FIBROBLASTS) ABILITY TO MODIFY FUNCTION OF EXTRACELLULAR MATRIX” (priority 2007, published 2008).

Legend:
Human dermal fibroblasts [1] = test: RT-PCR analysis of mRNA levels of ECM components after atRA treatment; format: cell-based; details: fold induction (+) or suppression (−) vs control; 10^-7 M, 24 hours
Method: (§1) Human dermal fibroblasts were grown in DMEM cell culture media containing 10% fetal bovine serum and 1% penicillin/streptomycin (Invitrogen). For all experiments, third-passage fibroblasts were used one day after reaching confluence. […] After 24 hour treatment RNA and protein was isolated and analyzed for the expression of components of ECM and transcriptional regulators.
(§2) Total RNA from various human tissues was purified using RNAwiz (Ambion, USA) and subjected to subsequent DNase I treatment using the DNA-Free kit (Ambion). Total RNA from cancer cells was purified by using 4PCRmini kit (Ambion). First-strand cDNAs were synthesized with Superscript III reverse transcriptase (Invitrogen, USA) and 5 μg of total RNA using oligo d(T) priming in a final reaction volume of 50 μL
The cDNA was amplified by PCR using the 2.5 U Hot-Firepol (Solis BioDyne, Estonia) and buffer Yellow (Naxo, Estonia). Reaction was performed in a 10 ul volume, using 0.5 ul cDNA as a template. Following primer sets (Table 21) were designed for this study:
The thermal cycling protocols were as follows: initial denaturation of template DNA and heat-activation of polymerase (15 min at 95° C.) followed by 40 cycles denaturation (30 sec at 95° C.) annealing (58° C.) and extension (90 sec). PCR products were analysed on a 1% agarose gel. For sequencing, PCR reactions were purified using PCR purification kit (Qiagen, USA) and subcloned into TOPO TA cloning vector. Fragments were sequenced at GATC Biotech sequencing services (Germany).

Human dermal fibroblasts [2] = test: Western blot analysis of protein levels of ECM components after atRA treatment; format: cell-based; details: fold induction (+) or suppression (−) vs control; 10^-7 M, 24 hours
Method: as §1
Cells were lysed in Cell Disruption Buffer supplied with the Paris kit (Ambion) and protein concentration was determined using Bradford reagent (Pierce). Proteins were separated on 10% SDS-PAAG and transferred into the PVDF membrane (Biorad). […] Signal was detected using ECL reagent (Pierce).

[3] = system: dermal fibroblasts isolated from 17 individuals; test: Real time RT-PCR of ECM components, nuclear hormone receptors and coregulators in fibroblasts from 17 individuals; format: cell-based, human
Method: Total RNA was extracted from cells using RNA aqueous kit (Ambion, USA). First-strand cDNAs were synthesized with Superscript III reverse transcriptase (Invitrogen, USA) and 1 μg of total RNA using oligo d(T) priming in a final reaction volume of 40 μL.
Levels of specific mRNAs were measured by real-time RT-PCR using Platinum SYBR Green qPCR SuperMix UDG (Invitrogen) according the protocol on the LightCycler 2.0 (Roche, US). The cycling program steps were: for one cycle 50° C. 2 min, for one cycle 95° C. 2 min and for 45 cycles: 95° C. 10 s, 60° C. 10 s, 72° C. 10 s. All samples were run in triplicates. Results were analyzed with the comparative Ct method (from Applied Biosystems manual; Livak and Schmittgen, 2001). Every sample was normalized for the housekeeping gene GAPDH. Transcript levels in the atRA and TGFb1 treated samples were compared to control samples.

[4] = system: skin fibroblasts from 30 individuals; test: Combined score of expression stimulation of 5 genes in fibroblast isolates (FIG. 1); format: cell-based, human; details: 24 hour treatment, atRA 10^-7 M, Matrixyl 1 μM, KappaElastin 1 μM
Method: as §1, §2
The cDNA was amplified by PCR using the 2.5 U Hot-Firepol (Solis BioDyne, Estonia) and buffer Yellow (Naxo, Estonia). Reaction was performed in a 10 ul volume, using 0.5 ul cDNA as a template. Following primer sets were designed for this study:
The combined score of expression stimulation of 5 genes was calculated and blotted for each fibroblast isolate. […] This biological variation provides a good biological rational to use molecular diagnostics for matching cosmetics product and skin cells of specific individual (personalized cosmetics).

[5] = fibroblasts from 17 individuals, 1 μM, 24 hours

CC1=C(/C=C/C(C)=C/C=C/C(C)=C/C(=O)O)C(C)(C)CCC1 [all trans retinoic acid, all-trans retinoic acid]
COL1A1 mRNA level (Human dermal fibroblasts [1]): 2 fold | COL1A2 mRNA level (Human dermal fibroblasts [1]): 4 fold | COL2A1 mRNA level (Human dermal fibroblasts [1]): 5 fold | COL3A1 mRNA level (Human dermal fibroblasts [1]): 2 fold | COL4A1 mRNA level (Human dermal fibroblasts [1]): 1 fold | COL4A2 mRNA level (Human dermal fibroblasts [1]): 3 fold | COL4A3 mRNA level (Human dermal fibroblasts [1]): 2 fold | COL4A4 mRNA level (Human dermal fibroblasts [1]): 1 fold | COL7A1 mRNA level (Human dermal fibroblasts [1]): 2 fold | Elastin ELN mRNA level (Human dermal fibroblasts [1]): 4 fold | FBLN5 mRNA level (Human dermal fibroblasts [1]): 2 fold | FN 1 mRNA level (Human dermal fibroblasts [1]): 1 fold | Fibrillin-1 mRNA level (Human dermal fibroblasts [1]): 1 fold | Fibrillin-2 mRNA level (Human dermal fibroblasts [1]): 1 fold | Fibulin-2 mRNA level (Human dermal fibroblasts [1]): 3 fold | Lumican mRNA level (Human dermal fibroblasts [1]): 1 fold | Lysyl oxidase mRNA level (Human dermal fibroblasts [1]): 8 fold | MMP2 mRNA level (Human dermal fibroblasts [1]): 2 fold | MMP7 mRNA level (Human dermal fibroblasts [1]): 2 fold | MMP9 mRNA level (Human dermal fibroblasts [1]): 2 fold | MMP12 mRNA level (Human dermal fibroblasts [1]): 2 fold | MMP13 mRNA level (Human dermal fibroblasts [1]): 5 fold | MMP19 mRNA level (Human dermal fibroblasts [1]): 1 fold | MMP20 mRNA level (Human dermal fibroblasts [1]): 1 fold | MMP-11 mRNA level (Human dermal fibroblasts [1]): 7 fold | TIMP1 mRNA level (Human dermal fibroblasts [1]): 2 fold | TIMP3 mRNA level (Human dermal fibroblasts [1]): 3 fold | TIMP4 mRNA level (Human dermal fibroblasts [1]): 1 fold | aggrecan mRNA level (Human dermal fibroblasts [1]): 1 fold | decorin mRNA level (Human dermal fibroblasts [1]): 6 fold | fibromodulin mRNA level (Human dermal fibroblasts [1]): 1 fold | COL1A1 protein level (Human dermal fibroblasts [2]): 2 fold | COL1A2 protein level (Human dermal fibroblasts [2]): 2 fold | COL2A1 protein level (Human dermal fibroblasts [2]): 3 fold | COL3A1 protein level (Human dermal fibroblasts [2]): 2 fold | COL4A1 protein level (Human dermal fibroblasts [2]): 1 fold | COL4A2 protein level (Human dermal fibroblasts [2]): 1 fold | COL4A3 protein level (Human dermal fibroblasts [2]): 1 fold | COL4A4 protein level (Human dermal fibroblasts [2]): 1 fold | COL5A1 protein level (Human dermal fibroblasts [2]): 1 fold | Elastin ELN protein level (Human dermal fibroblasts [2]): 2 fold | Lysyl oxidase protein level (Human dermal fibroblasts [2]): 3 fold | MMP2 protein level (Human dermal fibroblasts [2]): 2 fold | MMP-11 protein level (Human dermal fibroblasts [2]): 3 fold | decorin protein level (Human dermal fibroblasts [2]): 4 fold | variation between individuals of effect on expression of nuclear hormone receptors, compared with co-regulators ([3]; cells treated with atRA, 17 individuals): less variation | CBP expression in RA treatment compared to control, from-to between individuals [3, 5]: (from −2.15 to 3.17) fold | COL1A1 expression in RA treatment compared to control, from-to between individuals [3, 5]: (from −6.25 to 3.25) fold | COL1A2 expression in RA treatment compared to control, from-to between individuals [3, 5]: (from −3.13 to 1.83) fold | COL3A1 expression in RA treatment compared to control, from-to between individuals [3, 5]: (from −2.28 to 2.89) fold | COL4A1 expression in RA treatment compared to control, from-to between individuals [3, 5]: (from −3.97 to 2.18) fold | COL5A1 expression in RA treatment compared to control, from-to between individuals [3, 5]: (from −4.76 to 2.39) fold | COL5A2 expression in RA treatment compared to control, from-to between individuals [3, 5]: (from −1.41 to 2.94) fold | CTGF expression in RA treatment compared to control, from-to between individuals [3, 5]: (from −2.4 to 2.64) fold | ELN expression in RA treatment compared to control, from-to between individuals [3, 5]: (from −2.44 to 3.02) fold | FN 1 transcr.v.1 expression in RA treatment compared to control, from-to between individuals [3, 5]: (from −3.63 to 1.14) fold | Individual variation of gene expression in RA treatment: CBP [3, 5]: 5.32 fold | Individual variation of gene expression in RA treatment: COL1A1 [3, 5]: 9.5 fold | Individual variation of gene expression in RA treatment: COL1A2 [3, 5]: 4.96 fold | Individual variation of gene expression in RA treatment: COL3A1 [3, 5]: 5.17 fold | Individual variation of gene expression in RA treatment: COL4A1 [3, 5]: 6.15 fold | Individual variation of gene expression in RA treatment: COL4A4 [3, 5]: 1.63 fold | Individual variation of gene expression in RA treatment: COL5A1 [3, 5]: 7.15 fold | Individual variation of gene expression in RA treatment: COL5A2 [3, 5]: 4.35 fold | Individual variation of gene expression in RA treatment: CTGF [3, 5]: 5.04 fold | Individual variation of gene expression in RA treatment: ELN [3, 5]: 5.46 fold | Individual variation of gene expression in RA treatment: FN 1 transcr.v.1 [3, 5]: 4.77 fold | Individual variation of gene expression in RA treatment: MMP1, collagenase 1 [3, 5]: 7.09 fold | Individual variation of gene expression in RA treatment: MMP2 gelatinase [3, 5]: 5.05 fold | Individual variation of gene expression in RA treatment: MMP3 stromelysin [3, 5]: 6.4 fold | Individual variation of gene expression in RA treatment: MMP7 [3, 5]: 16.46 fold | Individual variation of gene expression in RA treatment: MMP10, stromelysin 2 [3, 5]: 12 fold | Individual variation of gene expression in RA treatment: MMP19 [3, 5]: 3.41 fold | Individual variation of gene expression in RA treatment: NCOA1 [3, 5]: 5.68 fold | Individual variation of gene expression in RA treatment: NCOA2 [3, 5]: 5.63 fold | Individual variation of gene expression in RA treatment: NCOA3 [3, 5]: 6.16 fold | Individual variation of gene expression in RA treatment: NCOA5 [3, 5]: 3.1 fold | Individual variation of gene expression in RA treatment: NCOA6 [3, 5]: 3.43 fold | Individual variation of gene expression in RA treatment: NCOA7 [3, 5]: 4.44 fold | Individual variation of gene expression in RA treatment: NCOR1 [3, 5]: 4.2 fold | Individual variation of gene expression in RA treatment: PC4 [3, 5]: 3.57 fold | Individual variation of gene expression in RA treatment: PPARG [3, 5]: 4.59 fold | Individual variation of gene expression in RA treatment: RARA [3, 5]: 4.44 fold | Individual variation of gene expression in RA treatment: RARG [3, 5]: 3.37 fold | Individual variation of gene expression in RA treatment: RXRA [3, 5]: 4.34 fold | Individual variation of gene expression in RA treatment: RXRG [3, 5]: 4.01 fold | Individual variation of gene expression in RA treatment: TIMP1 [3, 5]: 4.21 fold | MMP1, collagenase 1 expression in RA treatment compared to control, from-to between individuals [3, 5]: (from −3.38 to 3.71) fold | MMP2 gelatinase expression in RA treatment compared to control, from-to between individuals [3, 5]: (from −2.7 to 2.35) fold | MMP3 stromelysin expression in RA treatment compared to control, from-to between individuals [3, 5]: (from −3.73 to 2.67) fold | MMP7 expression in RA treatment compared to control, from-to between individuals [3, 5]: (from −14.77 to 1.69) fold | MMP10, stromelysin 2 expression in RA treatment compared to control, from-to between individuals [3, 5]: (from −5.15 to 6.84) fold | MMP19 expression in RA treatment compared to control, from-to between individuals [3, 5]: (from −2.4 to 1.01) fold | NCOA1 expression in RA treatment compared to control, from-to between individuals [3, 5]: (from −2.99 to 2.69) fold | NCOA2 expression in RA treatment compared to control, from-to between individuals [3, 5]: (from −1.95 to 3.68) fold | NCOA3 expression in RA treatment compared to control, from-to between individuals [3, 5]: (from −2.02 to 4.14) fold | NCOA5 expression in RA treatment compared to control, from-to between individuals [3, 5]: (from −1.25 to 1.85) fold | NCOA6 expression in RA treatment compared to control, from-to between individuals [3, 5]: (from −1.44 to 1.99) fold | NCOA7 expression in RA treatment compared to control, from-to between individuals [3, 5]: (from −1.85 to 2.59) fold | NCOR1 expression in RA treatment compared to control, from-to between individuals [3, 5]: (from −2.23 to 1.97) fold | PC4 expression in RA treatment compared to control, from-to between individuals [3, 5]: (from −1.8 to 1.77) fold | PPARG expression in RA treatment compared to control, from-to between individuals [3, 5]: (from −1.64 to 2.95) fold | RARA expression in RA treatment compared to control, from-to between individuals [3, 5]: (from −1.53 to 2.91) fold | RARG expression in RA treatment compared to control, from-to between individuals [3, 5]: (from −1.45 to 1.92) fold | RXRA expression in RA treatment compared to control, from-to between individuals [3, 5]: (from −1.75 to 2.59) fold | RXRG expression in RA treatment compared to control, from-to between individuals [3, 5]: (from −2.02 to 1.99) fold | induced or repressed expression of different genes (Col1A1, Col4A1, Elastin, MMP1, MMP7) ([3]; in different fibroblast isolates, 17 individuals, 1 μM, 24 hours): up to 8 fold | variation between individual fibroblasts of expression of coactivators NCOA1, NCOA2 and NCOA3 ([3]; in response to atRA, 17 individuals): highest variation | combined score of expression stimulation of 5 genes (COL1A1, COL2A1, elastin, proteoglycan, TIMP1) per fibroblast isolate [4]: 3 groups of fibroblasts that have different response
